According to patent US20150328109A1, “DERMAL COMPOSITIONS CONTAINING UNNATURAL HYGROSCOPIC AMINO ACIDS” (MEDPHARM LIMITED, priority 2012, published 2015):
“And” between values parts separate entries of the source, which are not always exact repeats. Equal values may be shown once.

Columns and labels:
[1] = tested on: GM-CSF; assay: GM-CSF release from in vitro psoriatic tissue model (ELISA); format: cell-based, human; conditions: over 6 days; 10% w/v N-H-S, 1% w/v N-H-G, 10% w/v L-h-S, 10% w/v combination 1:1:1 in water
Description: (§1) A human cell based in vitro psoriatic tissue model consisting of psoriatic fibroblasts and normal keratinocytes was used in this study. […] GM-CSF is a key activator of the innate immune system involved in chronic inflammatory and autoimmune diseases including psoriasis (Löntz et al 1995), where macrophages, granulocytes, neutrophils, eosinophils and dendritic cells can contribute to tissue damage and disease progression (Krinner 2007). GM-CSF stimulates stem cells to produce granulocytes and other macrophages and subsequently activates these differentiated immune cells. GM-CSF has also been identified as an inflammatory mediator in autoimmune disorders with elevated levels of GM-CSF mRNA or protein being measured in a variety of inflammatory sites including in allergic and psoriatic patients, arthritic and asthmatic patients (Plater-Zyberk et al 2008). Numerous in vivo studies over the past few years have shown that blockade of GM-CSF via neutralising antibodies can prevent or even cure pro-inflammatory diseases in various models of inflammation including arthritis experimental autoimmune encephalitis, psoriasis (Schon et al 2000), and lung disease (Plater-Zyberk et al 2008). […] Due to the importance of GM-CSF in psoriasis it was selected for analysis in this study.
In this investigation two types of RHE tissues were used, which were healthy and psoriatic tissue sourced from the MatTek Corporation (Ashland, Mass.). For simplicity the protocol below refers to both tissue types as RHE tissues and all media as assay medium as both tissues were treated in the same manner. The only exception was that two different types of media were required for the different types of tissue (healthy and psoriatic tissues). […]

[2] = tested on: Psoriatic tissues; assay: Tissue viability (MTT) of psoriatic tissue during 6 day treatment; format: cell-based, human; conditions: for irritancy conclusion from tissue viability over 6 days: 6 day dosing period; for Psoriatic tissues as a percentage of untreated control (%): 10% w/v, n = 1
Description: as §1
In this investigation two types of RHE tissues were used, which were healthy and psoriatic tissue sourced from the MatTek Corporation (Ashland, Mass.). For simplicity the protocol below refers to both tissue types as RHE tissues and all media as assay medium as both tissues were treated in the same manner. The only exception was that two different types of media were required for the different types of tissue (healthy and psoriatic tissues).
• (i) At the end of the equilibration period, the media for each well was removed then the tissues were lifted and placed on culture stands and fresh pre-warmed (37° C.) assay medium (5 mL) was added to the well. • (ii) Using a positive displacement pipette, the test solutions 10% w/v, N-H-S(N-hydroxyserine) in water, […], N-H-G (N-hydroxyglycine) in water, 10% w/v, L-h-S (L-homoserine) in water and 10% w/v, combination 1:1:1 (N-H-S:N-H-G: L-h-S) in water were dispensed (50±0.5 μL) onto the top of the RHE tissue. The solutions or controls were then distributed over the surface of the RHE tissues using a sterile glass rod. • (iii) The lid was placed on the well plate containing the RHE tissue and the tissues were returned to the incubator (37° C., 5% CO2) 48 h between applications.
• (i) Every 48 h culture media for the RHE tissues was removed from the 6 well plates and transferred into tubes stored (−20° C.) for cytokine analysis. • (ii) Fresh pre-warmed (37° C.) assay medium (5 mL) was added to each tissue using an automatic pipette. • (iii) From each treatment 1 tissue was removed for viability assessment. • (iv) The RHE tissues were subsequently rinsed with 100 μL of PBS to remove the residual solution from the epidermal surface. • (v) Using a positive displacement pipette, the solutions 10% w/v, N-H-S in water, 1% w/v, N-H-G in water, 10% w/v, L-h-S in water and 10% w/v, combination 1:1:1 (N-H-S:N-H-G:L-h-S) were dispensed (50±0.5 μL) onto the top of the RHE tissue. The solutions or controls were then distributed over the surface of the RHE tissues using a sterile glass rod. • (vi) The lid was placed on the well plate containing the RHE tissue and the tissues were returned to the incubator (37° C., 5% CO2) 48 h between applications at t=0, 48 and 96 h. […]

[3] = Deliquescence relative humidity (DRH) of a saturated solution in a sealed vessel at 32° C.; format: physicochemical; conditions: saturated solution in water (1 mL), 24 hours, mass used printed beside the name
Protocol: This experiment was to measure the deliquescence relative humidity (DRH) caused by a saturated amino acid solution in a sealed vessel at 32° C.; the lower the DRH, the greater the water holding capacity of the solution measured. Deliquescence relative humidity is the relative humidity at which the compound deliquesces, i.e. the relative humidity in which the compound absorbs so much water that it dissolves within the absorbed water.
The apparatus is maintained at 32° C. The temperature of 32° C. was chosen for being the temperature of outer stratum corneum. As the amino acids are to eventually be delivered to the outer layer of the skin, then the water holding capacity of these compounds at 32° C. is important.
The saturated solution is prepared as above by adding the amino acid to water (1 mL, 32° C.), whilst swirling. The total amino acid is weighed before adding to the water and the remaining amino acid so that the mass of compound used can be determined. The saturated solution (1 mL, 32° C.) is then transferred into the vial, again because of partial molar volume causing a change in volume by the addition of the amino acid to the water.
The temperature and % RH (% Relative Humidity) shown on the thermo-hygrometer are recorded every 30 minutes until the % RH remains constant. The temperature confirms that the temperature experienced by the sample is 32° C.

N[C@@H](CCO)C(=O)O [L-homoserine]
release of GM-CSF from psoriasis tissues compared to untreated psoriasis tissues [1]: reduced
irritancy conclusion from tissue viability over 6 days [2]: non-irritants
DRH [3]: 71.4% and 71.37%

O=C(O)CNO [N-hydroxyglycine, N-Hydroxyglycine]
release of GM-CSF from psoriasis tissues compared to untreated psoriasis tissues [1]: reduced
Psoriatic tissues as a percentage of untreated control (%) ([2]; 2 days in treatments): 87.1%
Psoriatic tissues as a percentage of untreated control (%) ([2]; 4 days in treatments): 77.6%
irritancy conclusion from tissue viability over 6 days [2]: non-irritants
irritancy conclusion from tissue viability over 6 days ([2]; listed as N-H-G): non-irritating
Psoriatic tissues as a percentage of untreated control (%) ([2]; 6 days in treatments): 89.6%
DRH [3]: 68.1%

O=C(O)[C@H](CO)NO [N-hydroxyserine]
release of GM-CSF from psoriasis tissues compared to untreated psoriasis tissues [1]: reduced
Psoriatic tissues as a percentage of untreated control (%) ([2]; 2 days in treatments): 94.0%
Psoriatic tissues as a percentage of untreated control (%) ([2]; 4 days in treatments): 75.3%
irritancy conclusion from tissue viability over 6 days [2]: non-irritant
irritancy conclusion from tissue viability over 6 days ([2]; listed as N-H-S): non-irritating
Psoriatic tissues as a percentage of untreated control (%) ([2]; 6 days in treatments): 96.0%
DRH [3]: 68.3%
